Holding throughout (type): cell-based
Assay [1] relates to astrocytes derived from rat cerebral cortex (R-CxAs-520). The assay can be described thus: Nestin expression inducing activity, western blot analysis of nestin and GFAP, astrocytes derived from the cerebral cortex. The conditions noted are these: peptide 5 μM, 2 days; for expression of GFAP compared to the culture without addition of the peptide: anti-GFAP antibody; for expression of nestin compared to the culture without addition of the peptide: anti-nestin antibody, FIG. 4. Here is the method: Among the synthetic peptides obtained in Example 1, samples 1 to 3 were evaluated for nestin expression inducing activity by western blot analysis using an anti-nestin antibody. Cells used for the test were cultured cells of astrocytes derived from rat cerebral cortex (R-CxAs-520: available from Lonza). A comparative example was carried out without addition of the peptide. The evaluation test is detailed as follows.
In the same manner as in Example 4, the astrocytes derived from rat cerebral cortex were incubated in the presence of the peptide at a peptide concentration of 5 μM for 2 days. After the incubation was completed, total protein was extracted from cultured cells from each experimental sample in the same manner as in Example 3.
SDS-PAGE and western blot analysis were then carried out in the same manner as in Example 3 to examine expression of nestin and GFAP in each experimental sample. An internal standard used in the series of procedures was the GAPDH protein.
Lanes 1, 2, 3 and 4 are the results without addition of the peptide, with addition of sample 2, with addition of sample 3 and with addition of sample 1, respectively.
Background: A western blot detects proteins with antibodies after separation by electrophoresis.

In assay [2] the test system is astrocytes derived from rat brain hippocampus (R-HiAs-521). The assay can be described thus: Nestin expression inducing activity, nestin gene expression by qRT-PCR, astrocytes derived from the hippocampus. The conditions noted are these: corrected with Actin β, peptide 5 μM, 2 days, FIG. 1. Here is the method:
Among the synthetic peptides obtained in Example 1, sample 1 (i.e. the nestin-inducing synthetic peptide of the present invention) was evaluated for nestin expression inducing activity by quantifying the expression level of the nestin gene. Cells used for the test were cultured cells of astrocytes derived from rat brain hippocampus (R-HiAs-521: available from Lonza). The evaluation test is detailed as follows.
The astrocytes derived from rat brain hippocampus were inoculated into a 6-well cell culture plate at a density of 1.0×10^5 cells/well. […]
After the incubation was completed, cultured cells from each experimental sample were washed with Cold PBS (−), and total RNA was extracted and purified using a commercially available RNA extraction and purification kit (NUCLEOSPIN™ RNA/Protein kit: available from Macherey Nagel). […] The purified RNA was quantified using Agilent 2100 Bioanalyzer (available from Agilent Technologies).
The purified RNA was subjected to qRT-PCR to examine the expression level of the nestin gene. […] RT-PCR employed the two-step RT-PCR method and quantitative PCR employed the TAQMAN® method. […]
The cDNA obtained in RT-PCR was then used as a template for quantitative PCR. […] Quantitative PCR reaction was carried out under the conditions of incubation at 95° C. for 10 seconds followed by 45 cycles of 95° C. for 15 seconds, 62° C. for 20 seconds and 72° C. for 20 seconds. […]
For orientation: Real-time PCR tracks product formation cycle by cycle.

Assay [3] relates to astrocytes derived from rat brain cerebral cortex (R-CxAs-520). The assay can be described thus: Nestin expression inducing activity, nestin gene expression by qRT-PCR, astrocytes derived from the cerebral cortex. Conditions: corrected with Actin β, peptide 10 μM, 2 days, FIG. 3. Here is the method:
Among the synthetic peptides obtained in Example 1, sample 1 (i.e. the nestin-inducing synthetic peptide of the present invention) was evaluated for nestin expression inducing activity by quantifying the expression level of the nestin gene. Cells used for the test were cultured cells of astrocytes derived from rat brain cerebral cortex (R-CxAs-520: available from Lonza). The evaluation test is detailed as follows.
The astrocytes derived from rat cerebral cortex were inoculated into a 6-well cell culture plate at a density of 1.0×10^5 cells/well. The cells were incubated in the AG medium overnight in a CO2 incubator at 37° C. and 5% CO2.
After the overnight incubation, the medium was replaced with an AG medium containing the peptide of sample 1 at the amount of 10 μM, and the incubation was continued under the same condition for 2 more days. A comparative example was carried out without addition of the peptide.
After the incubation was completed, total RNA was extracted from cultured cells from each experimental sample in the same manner as in Example 2. […]
The expression level of the nestin gene in each experimental sample was corrected with the expression level of Actin β in each experimental sample. The expression level of each gene is expressed as a value relative to the expression level of the gene in the sample without addition of the peptide being regarded as 1.

Assay [4] relates to astrocytes derived from rat brain hippocampus (R-HiAs-521). The assay can be described thus: Nestin expression inducing activity, western blot analysis of nestin and GFAP, astrocytes derived from the hippocampus. Conditions: peptide 5 μM, 3 days. The procedure:
Among the synthetic peptides obtained in Example 1, sample 1 (i.e. the nestin-inducing synthetic peptide of the present invention) was evaluated for nestin expression inducing activity by western blot analysis using an anti-nestin antibody. Cells used for the test were cultured cells of astrocytes derived from rat brain hippocampus (R-HiAs-521: available from Lonza). A comparative example was carried out without addition of the peptide. The evaluation test is detailed as follows.
In the same manner as in Example 2, the astrocytes derived from rat brain hippocampus were incubated in the presence of the peptide at a peptide concentration of 5 μM for 3 days. After the incubation was completed, cultured cells from each experimental sample were washed with Cold PBS (−), and total protein was extracted using a commercially available protein extraction and purification kit (NucleoSpin™ RNA/Protein kit: available from Macherey Nagel). All procedures were carried out in the absence of proteases according to the instruction attached to the kit. The concentration of the extracted protein was quantified using RC DC Protein assay (available from BIO RAD).
According to the SDS (sodium dodecyl sulphate)-polyacrylamide electrophoresis (SDS-PAGE) and western blot analysis as described below, expression of nestin and GFAP in each experimental sample was examined. An internal standard used in the series of procedures was the GAPDH protein.
Specifically, proteins obtained from each experimental sample and a molecular weight marker (MagicMark™ XP Western Protein Standard: available from Life Technologies) were injected to a well of an SDS-polyacrylamide gel (precast gel for electrophoresis: available from Oriental Instruments Co., Ltd.) and SDS-PAGE was carried out. Electrophoresis of nestin was carried out on a 7.5% SDS-polyacrylamide gel and electrophoresis of GFAP and the GAPDH protein was carried out on a 5-20% SDS-polyacrylamide gel.
The proteins separated by SDS-PAGE were transferred (blotting) onto a PVDF (polyvinylidene difluoride) membrane which was then blocked in Perfect-Block (available from MoBiTec) diluted to 5% in PBS (−) containing Tween 20™ (hereinafter referred to as PBST (−)).
Nestin, GFAP and the GAPDH protein were detected with primary antibodies, an anti-nestin antibody (murine, available from Merck Millipore), an anti-GFAP antibody (murine, available from Progen Biotechnik) and an anti-GAPDH antibody (murine, available from Merck Millipore) diluted 500-, 5000- and 10000-fold, respectively, in PBST (−) by the reaction for 1 hour at room temperature. […]
Target proteins were then detected by reaction with the ECL prime Western blotting detection reagent (available from GE Healthcare) using the Luminescent image analyser LAS-3000 (available from Fujifilm Corporation). […]

Ends that are not written are not given here.

Regarding “NLQDLCRIKIRQCIGKKRTLRKNDRKKR (NLQDLCRIKIRQCIGKKRTLRKNDRKKR-NH2; cysteine pairing not given here) [sample 2, reference compound]”, in assay [1], the “expression of GFAP compared to the culture without addition of the peptide” value is recorded as “difference in expression of nestin or GFAP was not confirmed” and the “expression of nestin compared to the culture without addition of the peptide” value is on record as “difference in expression of nestin or GFAP was not confirmed”.
With “SLQYLCRFVIRQYTRKKRTLRKNDRKKR (SLQYLCRFVIRQYTRKKRTLRKNDRKKR-NH2) [sample 1]”, the “expression of GFAP compared to the culture without addition of the peptide” value in assay [1] and in assay [4] (anti-GFAP antibody) was “difference in expression of GFAP was not confirmed” in each case. Also, the “expression of nestin compared to the culture without addition of the peptide” value is recorded as “significant increase” in assay [1] and “significant increase” in assay [4] (anti-nestin antibody, FIG. 2). In addition, the “co-expression of GFAP and nestin” value in assay [1] and in assay [4] was “co-expressed” each time. Besides, the “expression of nestin, times higher than the culture without addition of the peptide” value in assay [1] and in assay [4] was no less than 2 times throughout. The “expression of the nestin gene compared to the culture without addition of the peptide” value in assay [2] and in assay [3] was “significant increase” throughout.
Regarding “TLHQQCIRVLKNNIDKKRTLRKNDRKKR (TLHQQCIRVLKNNIDKKRTLRKNDRKKR-NH2) [sample 3, reference compound]”, in assay [1], the “expression of GFAP compared to the culture without addition of the peptide” value is “difference in expression of nestin or GFAP was not confirmed” and the “expression of nestin compared to the culture without addition of the peptide” value is “difference in expression of nestin or GFAP was not confirmed”.

These data come from US9856293B2, “Methods for inducing nestin expression of astrocytes by nestin-inducing synthetic peptides derived from the BC-box of the SOCS6 protein” (TOAGOSEI CO. LTD., priority 2013, dated 2018).
